Several values for one entry are separate records, joined by “and”; a condition that tells them apart may be missing. Equal entries are not always repeated.
Columns and labels:
[1] = tested on: rTA1; settings: cited from earlier work
[2] = molecular target: T1, hTA1 (Homo sapiens, UniProt Q96RJ0); settings: antagonist; cited from earlier work
T1 construct: expressed in transfected cells; host or cells: HEK293T
T1 sequence (Q96RJ0 1-339): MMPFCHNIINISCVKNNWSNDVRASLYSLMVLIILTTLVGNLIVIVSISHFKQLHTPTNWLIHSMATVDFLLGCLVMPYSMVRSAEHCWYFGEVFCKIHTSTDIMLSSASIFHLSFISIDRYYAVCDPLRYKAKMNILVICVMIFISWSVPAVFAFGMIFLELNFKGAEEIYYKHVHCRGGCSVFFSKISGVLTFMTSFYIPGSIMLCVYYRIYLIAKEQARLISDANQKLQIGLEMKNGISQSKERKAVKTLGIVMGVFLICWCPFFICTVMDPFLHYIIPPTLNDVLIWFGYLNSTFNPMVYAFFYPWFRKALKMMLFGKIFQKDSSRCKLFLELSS

[3] = tested on: mTA1; settings: cited from earlier work
[4] = molecular target: T1, hTA1; settings: cited from earlier work
[5] = molecular target: mTA1; settings: read-out: affinity; cited from earlier work
[6] = tested on: DRD4 S^5.43A; settings: S^5.43A mutation in DRD4; cited from earlier work
[7] = molecular target: T1, hTA1; assay: GloSensor cAMP accumulation assay, concentration response, wild-type hTA1 in transfected HEK293T cells; type: cell-based; settings: log[Compound], replicate wells;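 further: luminescence read after 30 min compound exposure at room temperature in cells preloaded with D-Luciferin, reflecting Gs-driven cAMP rise, efficacy scaled to the maximal β-PEA response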
[8] = molecular target: T1, hTA1; assay: Screen of 89 aminergic compounds at 10 µM, cAMP accumulation in HEK293T cells; type: cell-based; settings: 10 µM of compound; HEK293T; threshold log2-fold change of 2;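 further: HEK293T cells co-transfected with hTA1 and GloSensor cAMP reporter, cAMP accumulation detected by luminescence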

SMILES	Normalized Luminescence Counts for WT hTA1 ([7]; M = -5)	Normalized Luminescence Counts for WT hTA1 ([7]; M = -5.522)	Normalized Luminescence Counts for WT hTA1 ([7]; M = -6)	Normalized Luminescence Counts for WT hTA1 ([7]; M = -6.522)	Normalized Luminescence Counts for WT hTA1 ([7]; M = -7)	Normalized Luminescence Counts for WT hTA1 ([7]; M = -7.522)	Normalized Luminescence Counts for WT hTA1 ([7]; M = -8)	Normalized Luminescence Counts for WT hTA1 ([7]; M = -8.522)	Normalized Luminescence Counts for WT hTA1 ([7]; M = -9)	Normalized Luminescence Counts for WT hTA1 ([7]; M = -9.522)	Normalized Luminescence Counts for WT hTA1 ([7]; M = -10)	Normalized Luminescence Counts for WT hTA1 ([7]; M = -10.522)	Normalized Luminescence Counts for WT hTA1 ([7]; M = -11)	Normalized Luminescence Counts for WT hTA1 ([7]; M = -11.522)	Normalized Luminescence Counts for WT hTA1 ([7]; M = -12)	Normalized Luminescence Counts for WT hTA1 ([7]; M = -12.522)	increase of signal over DMSO-treated controls (hTA1 activation) [8] [fold]	also measured
N#Cc1c(C(F)(F)F)cc(-c2ccc(Cl)cc2)nc1SCC(=O)Nc1ncccn1 [RTI-7470-44]	–	–	–	–	–	–	–	–	–	–	–	–	–	–	–	–	–	reduced potency relative to hTA1 ([1]; rTA1): ~ 90 fold; IC50 [2]: ~8 nM; reduced potency relative to hTA1 [3]: ~ 140 fold
CCOc1cccc(NC(=O)c2ccc(N3CCCC3)c(C(F)(F)F)c2)c1 [EPPTB]	–	–	–	–	–	–	–	–	–	–	–	–	–	–	–	–	–	binding to hTA1 [4]: does not appear to bind hTA1; Ki [5]: ~1 nM
NCCc1ccc(O)c(O)c1 [dopamine]	–	–	–	–	–	–	–	–	–	–	–	–	–	–	–	–	–	lowered potency by mutation [6]: 7 fold
NCCc1c[nH]c2ccccc12 [tryptamine]	–	–	–	–	–	–	–	–	–	–	–	–	–	–	–	–	–	higher potency at rTA1 compared to hTA1 ([1]; rTA1 vs hTA1): over 50 fold
Cc1cc(C(C)(C)C)c(O)c(C)c1CC1=NCCN1 [oxymetazoline]	35.3607 and 39.1587 and 34.0837 and 3.969 and 2.152 and 2.824	27.6664 and 21.0198 and 25.8983 and 1.56 and 0.6511 and 0.8091	14.0131 and 12.0159 and 14.9299 and -0.5736 and -1.127 and -1.4822	3.994 and 5.664 and 5.697 and -1.838 and -1.68 and -1.798	1.539 and 1.637 and 2.128 and -1.4822 and -2.075 and -1.719	-0.1968 and -0.426 and -0.09854 and -2.035 and -2.2723 and -2.391	0.03243 and -0.0003118 and 0.1634 and -1.166 and -0.9291 and -1.403	-0.7206 and -0.5569 and -0.1313 and -1.364 and -1.522 and -1.956	-0.7534 and -0.7861 and -0.0003118 and -1.403 and -1.798 and -2.035	-0.7206 and -0.4914 and -0.5569 and -1.4822 and -1.64 and -1.838	-1.31 and -1.0153 and -0.5242 and -2.075 and -1.4427 and -2.3118	-0.1313 and -0.7206 and -0.7861 and -2.075 and -1.4822 and -2.43	-0.03305 and -0.6224 and 0.03243 and -1.522 and -0.4551 and -2.114	-0.4914 and -0.4587 and -0.5242 and -1.403 and -1.048 and -2.075	-0.5897 and -0.6224 and -0.3932 and -2.035 and -1.4427 and -1.956	0.09791 and 0.06517 and -0.7861 and -1.64 and -1.127 and -0.8106	≥ 4	–
CNC[C@H](O)c1ccc(O)c(O)c1 [epinephrine]	-0.5341 and -0.7316 and 0.493	-0.1785 and 2.231 and -0.218	0.4535 and -0.139	0.493 and 1.046 and -0.7316	-1.759 and -1.996 and -0.9686	-2.549 and -2.2723 and -2.114	-2.035 and -0.8106 and -2.154	-1.917 and -1.68 and -2.233	-2.391 and -2.075 and -2.628	-2.588 and -2.667 and -2.549	-2.865 and -2.47 and -2.391	-2.628 and -2.193 and -2.549	-2.3118 and -2.193 and -2.114	-2.391 and -1.4427 and -1.956	-2.233 and -1.4427 and -1.917	-2.075 and -2.114 and -1.798	≥ 4	–

From PMC10762035, “Molecular basis of human trace amine-associated receptor 1 activation” (Nature Communications, 2024)
